Laboratory results as given in patent publication US20250235486A1, “Method of Producing Insulin-Producing Cells” (Monash University, priority 2022, published 2025).

Tested on: human pancreatic exocrine cells
Assay: qRT-PCR gene expression in ex vivo pancreatic exocrine cells from non-diabetic and type 1 diabetic donors
Type: cell-based
Excerpt: Islets were purified by intraductal perfusion and digestion of the pancreases with collagenase AF-1 (SERVA/Nordmark, Germany) (Ricordi C et al. Automated method for isolation of human pancreatic islets. Diabetes 37, 413-420 (1988)), followed by purification using Ficoll density gradients (Barbaro B, et al. Improved human pancreatic islet purification with the refined UIC—UB density gradient. Transplantation 84, 1200-1203 (2007)). Purified islets, from low density gradient fractions, and acinar/ductal tissue, from high density fractions, were cultured in Miami Media 1A (Mediatech/Corning 98-021, USA) supplemented with 2.5% human serum albumin (Australian Red Cross, Melbourne, VIC, Australia), in a 37° C., 5% CO2 incubator.
Total RNA from human ex vivo pancreatic cells was isolated using TRIzol (Invitrogen) and RNeasy Kit (QIAGEN) including a DNase treatment. First-strand cDNA synthesis was performed using a high-capacity cDNA Reverse Transcription Kit (Applied Biosystems) according to the manufacturer's instructions. cDNA primers were designed using oligoperfect designer (Thermo Fisher Scientific), as shown in Table 2 and Table 3. Briefly, quantitative RT-PCR analyses were undertaken using the PrecisionFast 2× qPCR Master Mix (Primerdesign) and primers using Applied Biosystems 7500 Fast Real-Time PCR System. Each qPCR reaction contained: 6.5 μl qPCR Master Mix, 0.5 μl of forward and reverse primers, 3.5 μl H2O and 2 μl of previously synthesised cDNA, diluted 1/20. Expression levels of specific genes were tested and normalised to 18s ribosomal RNA housekeeping gene.
All cell incubations were performed in Miami Media 1A (Mediatech/Corning 98-021, USA) supplemented with 2.5% human serum albumin (Australian Red Cross, Melbourne, VIC, Australia), in a cell culture incubator at 37° C. in an atmosphere of 5% CO2 for 48 hr using non-treated 6 well culture plates (Corning).

[1] = 10 mM GSK126 (so in the source), 48 hr
[2] = 10 mM GSK126 (so in the source), 48 hr, non-diabetic and T1D donors

## CC[C@H](C)n1cc(C)c2c(C(=O)NCc3c(C)cc(C)[nH]c3=O)cc(-c3ccc(N4CCNCC4)nc3)cc21 [GSK126, N-[(1,2-Dihydro-4,6-dimethyl-2-oxo-3-pyridinyl)methyl]-3-methyl-1-[(1S)-1-methylpropyl]-6-[6-(1-piperazinyl)-3-pyridinyl]-1H-indole-4-carboxamide]
[1]
  Amy2A (acinar marker) expression: did not significantly alter
  Ck19 (ductal marker) expression: did not significantly alter
  Ki67 (proliferative marker) expression: increased
  Txnip (glucose-sensor) expression: did not significantly alter
[2]
  Ins gene expression: significant expression
  Ngn3 mRNA expression: restored
  Pdx1 mRNA expression: restored
  Sox9 mRNA expression: restored
Ex vivo exocrine cells, GSK126
  MafA gene expression: restored
  Nkx6.1 gene expression: restored
  Sox11 gene expression: restored
